From US20230117034A1, “PYRAZOLOTRIAZINES” (Bayer Aktiengesellschaft, priority 2019, published 2023) come the findings set out here.

The target in assay [1] is T1, CDK12 (nuclear staining in CAL-120 cells) (Homo sapiens, UniProt Q9NYV4).
T1 construct: endogenous in cells; host or cells: CAL-120 human breast cancer cells (DSMZ ACC 459)
Kind of assay: CDK12 nuclear protein level: immunofluorescence/high content analysis (CAL-120). It counts as cell-based. The note with it: for DC50: CAL-120 cells, 24 h, immunofluorescence, 50% reduction of nuclear CDK12 staining intensity, median, read-out: CDK12 degradation IF, DC50- [mol/l] (median); for (IC50 CDK12 high ATP) to (Degradation DC50 CDK12) ratio: ratio of IC50 CDK12 high ATP kinase assay to DC50 CDK12 degradation (IF, CAL-120). As to the method: In the context of the present invention, the term “DC50 CDK12” refers to the DC50 values obtained according to the assay described in this section (7) herein below, i.e. the DC50 values for the degradation of CDK12.
Plates are then incubated for 24 h at 37° C. in an humidified incubator and fixed with 4% PFA for 10 min. […] Nuclear and cytoplasmic intensity as well as the nuclear/cytoplasmic intensity ratio is determined by automated image analysis using custom generated scripts (MetaXpress). Data is then transferred to Genedata Screener software, normalized to DMSO and control and DC50 values (degrading concentration to achieve 50% reduction of nuclear CDK12 staining intensity relative to controls) are reported.

The next assay concerns the target T2, CDK2/CycE (Homo sapiens, UniProt P24941).
T2 construct: purchased ProQinase GmbH (Freiburg, Germany); host or cells: insect cells (Sf9)
Briefly: CDK2/CycE kinase assay (TR-FRET, 2 mM ATP). It counts as biochemical. The note with it: 2 mM ATP (high ATP); median; read-out: CDK2/CyclinE, 2 mM ATP (high ATP), IC50 (median). The text has this: CDK2/CycE-inhibitory activity of compounds of the present invention was quantified employing the CDK2/CycE TR-FRET assay as described in the following paragraphs.
Recombinant fusion proteins of GST and human CDK2 and of GST and human CycE, expressed in insect cells (Sf9) and purified by Glutathion-Sepharose affinity chromatography, were purchase from ProQinase GmbH (Freiburg, Germany). As substrate for the kinase reaction biotinylated peptide biotin-Ttds-YISPLKSPYKISEG (C-terminus in amid form) was used which can be purchased e.g. form the company JERINI peptide technologies (Berlin, Germany).
For the assay 50 nanoL of a 100 fold concentrated solution of the test compound in DMSO was pipetted into a black low volume 384 well microtiter plate or a black 1536 well microtiter plate (both Greiner Bio-One, Frickenhausen, Germany), 2 microL of a solution of CDK2/CycE in aqueous assay buffer [50 millimol/L Tris/HCl pH 8.0, 10 millimol/L MgCl2, 1.0 millimol/L dithiothreitol, 0.1 millimol/L sodium ortho-vanadate, 0.01% (v/v) Nonidet-P40 (Sigma)] were added and the mixture was incubated for 15 min at 22° C. to allow pre-binding of the test compounds to the enzyme before the start of the kinase reaction. Then the kinase reaction was started by the addition of 3 microL of a solution of adenosine-tri-phosphate (ATP, 3.33 millimol/L=>final conc. in the 5 microL assay volume is 2 millimol/L) and substrate (1.25 micromol/L=>final conc. in the 5 microL assay volume is 0.75 micromol/L) in assay buffer and the resulting mixture was incubated for a reaction time of 25 min at 22° C. The concentration of CDK2/CycE was adjusted depending of the activity of the enzyme lot and was chosen appropriate to have the assay in the linear range, typical concentrations were in the range of 10 ng/ml. The reaction was stopped by the addition of 3 microL of a solution of TR-FRET detection reagents (0.333 micromol/L streptavidine-XL665 [Cisbio Bioassays, Codolet, France] and 1.67 nanomol/L anti-RB(pSer807/pSer8l 1)-antibody from BD Pharmingen [#558389] and 2 nanomol/L LANCE EU-W1024 labeled anti-mouse IgG antibody [Perkin-Elmer, product no. AD0077, as an alternative a Terbium-cryptate-labeled anti-mouse IgG antibody from Cisbio Bioassays can be used]) in an aqueous EDTA-solution (167 millimol/L EDTA, 0.2% (w/v) bovine serum albumin in 100 millimol/L HEPES pH 7.5).
The resulting mixture was incubated 1 h at 22° C. to allow the formation of complex between the phosphorylated biotinylated peptide and the detection reagents. Subsequently the amount of phosphorylated substrate was evaluated by measurement of the resonance energy transfer from the Eu-chelate to the streptavidine-XL. Therefore, the fluorescence emissions at 620 nm and 665 nm after excitation at 350 nm was measured in a TR-FRET reader, e.g. a Pherastar (BMG Labtechnologies, Offenburg, Germany) or a Viewlux (Perkin-Elmer). The ratio of the emissions at 665 nm and at […] was taken as the measure for the amount of phosphorylated substrate. The data were normalised (enzyme reaction without inhibitor=0% inhibition, all other assay components but no enzyme=100% inhibition).

The subject of assay [2] is BRCA1 mRNA expression in MDA-MB-231 cells. Kind of assay: qRT-PCR assay: BRCA1 mRNA expression in MDA-MB-231. The conditions noted are these: Homo sapiens, MDA-MB-231, Inhibition of BRCA1 mRNA expression in MDA-MB-231 cells; median; read-out: RTqPCR-MDA-MB-231, IC50, BRCA1 (median). It counts as cell-based, human. The procedure: 3. qRT-PCR Assay: BRCA, ATR, MCL1 in MDA-MB-231, CAL-120
Tissue cultured human MDA-MB-231 human breast cancer cells were plated in 500 microL per well at 200,000 cells/well in a 24 well microtiter plate. After 24 h, the cells were exposed continuously for 24 h to test substances (substances were added with Tecan HP 0300 Dispenser). RNA was prepared using Qiagen RNeasy MiniKit (#74106), RNA was quantified using a NanoDrop Equipment, and 600 nano gamms of RNA was coverted to cDNA using a SuperScript VILO kit (Thermofisher #11755050) followed by qPCR amplification. BRCA1 and ATR gene expression was measured by RT-qPCR and normalised to GAPDH housekeeping gene expression. qPCR primer sets have been purchased from Thermo Fisher Scientific/Applied Biosystems: BRCA1, #Hs 01556193; ATR, #Hs 00992123; GAPDH, #Hs 03929097.

T1 sequence (Q9NYV4 whole entry): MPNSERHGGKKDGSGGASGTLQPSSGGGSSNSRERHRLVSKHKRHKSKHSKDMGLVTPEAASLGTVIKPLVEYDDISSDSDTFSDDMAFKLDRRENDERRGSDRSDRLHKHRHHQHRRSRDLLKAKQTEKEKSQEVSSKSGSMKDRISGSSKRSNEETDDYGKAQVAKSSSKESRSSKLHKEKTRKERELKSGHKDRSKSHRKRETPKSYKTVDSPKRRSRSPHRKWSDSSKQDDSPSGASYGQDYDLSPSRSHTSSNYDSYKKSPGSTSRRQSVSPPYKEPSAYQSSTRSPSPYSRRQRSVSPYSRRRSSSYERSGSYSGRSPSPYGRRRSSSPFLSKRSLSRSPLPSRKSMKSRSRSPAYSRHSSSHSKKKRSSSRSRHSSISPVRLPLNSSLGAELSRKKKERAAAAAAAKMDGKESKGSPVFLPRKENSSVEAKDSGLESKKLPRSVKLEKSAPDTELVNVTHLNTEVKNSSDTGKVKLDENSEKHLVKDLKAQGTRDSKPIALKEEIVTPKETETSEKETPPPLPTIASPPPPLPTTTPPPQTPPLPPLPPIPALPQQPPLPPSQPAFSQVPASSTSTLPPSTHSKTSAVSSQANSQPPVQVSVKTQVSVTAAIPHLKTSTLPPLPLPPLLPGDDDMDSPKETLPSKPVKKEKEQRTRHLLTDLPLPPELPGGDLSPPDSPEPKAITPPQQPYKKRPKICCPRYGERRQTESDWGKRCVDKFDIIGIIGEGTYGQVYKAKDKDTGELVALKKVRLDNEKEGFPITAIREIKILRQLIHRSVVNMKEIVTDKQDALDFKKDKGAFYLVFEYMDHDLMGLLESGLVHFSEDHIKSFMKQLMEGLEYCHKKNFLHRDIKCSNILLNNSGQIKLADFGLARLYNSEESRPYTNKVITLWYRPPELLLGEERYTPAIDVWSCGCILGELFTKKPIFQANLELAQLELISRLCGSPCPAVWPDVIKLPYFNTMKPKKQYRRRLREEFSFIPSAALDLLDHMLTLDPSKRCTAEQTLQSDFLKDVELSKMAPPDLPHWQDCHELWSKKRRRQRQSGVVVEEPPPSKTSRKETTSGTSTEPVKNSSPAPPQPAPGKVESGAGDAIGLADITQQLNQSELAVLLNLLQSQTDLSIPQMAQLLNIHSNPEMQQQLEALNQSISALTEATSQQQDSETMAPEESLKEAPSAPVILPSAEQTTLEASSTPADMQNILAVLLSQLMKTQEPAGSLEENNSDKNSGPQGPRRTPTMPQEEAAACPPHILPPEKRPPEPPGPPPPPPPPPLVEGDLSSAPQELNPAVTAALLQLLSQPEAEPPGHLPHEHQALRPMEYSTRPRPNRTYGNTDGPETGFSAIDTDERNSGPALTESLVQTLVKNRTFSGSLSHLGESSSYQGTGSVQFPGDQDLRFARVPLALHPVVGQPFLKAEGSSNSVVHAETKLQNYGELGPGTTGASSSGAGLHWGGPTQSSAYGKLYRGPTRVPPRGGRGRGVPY
T1 sequence (O75909 whole entry partner): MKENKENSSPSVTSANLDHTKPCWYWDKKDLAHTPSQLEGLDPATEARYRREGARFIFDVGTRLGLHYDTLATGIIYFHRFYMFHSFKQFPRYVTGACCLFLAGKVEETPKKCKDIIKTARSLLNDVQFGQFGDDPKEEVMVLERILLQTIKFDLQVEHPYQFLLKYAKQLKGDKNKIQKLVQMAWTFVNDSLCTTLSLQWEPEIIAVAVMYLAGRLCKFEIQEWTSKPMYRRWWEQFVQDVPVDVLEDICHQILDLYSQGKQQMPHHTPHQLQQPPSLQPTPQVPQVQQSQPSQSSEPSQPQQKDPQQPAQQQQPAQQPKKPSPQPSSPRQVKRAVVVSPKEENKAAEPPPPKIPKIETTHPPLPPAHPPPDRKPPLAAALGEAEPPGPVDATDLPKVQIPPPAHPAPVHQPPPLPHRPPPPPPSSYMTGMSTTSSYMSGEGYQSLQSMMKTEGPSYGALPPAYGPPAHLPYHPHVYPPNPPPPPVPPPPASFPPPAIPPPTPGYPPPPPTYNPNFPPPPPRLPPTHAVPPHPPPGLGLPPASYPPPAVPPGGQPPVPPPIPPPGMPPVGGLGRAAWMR

Consider `CC(C)c1cnn2c(NCc3nc4ccccc4[nH]3)nc(N(C)CC(C)(C)O)nc12` [Example 5, 1-{[4-{[(1H-benzimidazol-2-yl)methyl]amino}-8-(propan-2-yl)pyrazolo[1,5-a][1,3,5]triazin-2-yl](methyl)amino}-2-methylpropan-2-ol], for which the DC50 in assay [1] came out at 11.4 nM. In addition, the “(IC50 CDK12 high ATP) to (Degradation DC50 CDK12) ratio” value in assay [1] stood at 455. Further, the results for the IC50 (at CDK2/CycE; in assay [2]) were 1360 nM and 23.3 nM, respectively.
Consider `CC(=O)NCCCc1cccc2[nH]c(CNc3nc(N4CCOCC4)nc4c(Br)cnn34)nc12.O=CO` [Example 115, formic acid-N-{3-[2-({[8-bromo-2-(morpholin-4-yl)pyrazolo[1,5-a][1,3,5]triazin-4-yl]amino}methyl)-1H-benzimidazol-4-yl]propyl}acetamide (1/1)], for which, in assay [1], the DC50 was found to be 45.3 nM and the “(IC50 CDK12 high ATP) to (Degradation DC50 CDK12) ratio” value was found to be 256. Besides, the IC50 on CDK2/CycE was 10700 nM.
In the case of `C[C@@H]1CN(c2nc(NCc3nnc(-c4ccccc4)[nH]3)n3ncc(Br)c3n2)CCN1C.O=CO` [Example 130, 8-bromo-2-[(3R)-3,4-dimethylpiperazin-1-yl]-N-[(5-phenyl-4H-1,2,4-triazol-3-yl)methyl]pyrazolo[1,5-a][1,3,5]triazin-4-amine formate], the DC50 in assay [1] came to 3.31 nM. In addition, the “(IC50 CDK12 high ATP) to (Degradation DC50 CDK12) ratio” value in assay [1] came to 2547. The IC50 is 8150 nM at CDK2/CycE and 37.6 nM in assay [2].
For `Fc1ccccc1-c1cnn2c(NCc3nc4ccccc4[nH]3)nc(N3CCOCC3)nc12` [Example 95, N-[(1H-benzimidazol-2-yl)methyl]-8-(2-fluorophenyl)-2-(morpholin-4-yl)pyrazolo[1,5-a][1,3,5]triazin-4-amine], in that order: 34.3 nM, more than 584, more than 20000 nM and 147 nM.
With `COc1ccc2[nH]c(CNc3nc(N4CCN(C)CC4)nc4c(Br)cnn34)nc2c1` [Example 161, 8-bromo-N-[(5-methoxy-1H-benzimidazol-2-yl)methyl]-2-(4-methylpiperazin-1-yl)pyrazolo[1,5-a][1,3,5]triazin-4-amine], in assay [1], the DC50 came to 0.856 nM and the “(IC50 CDK12 high ATP) to (Degradation DC50 CDK12) ratio” value turned out to be 11233. In addition, the IC50 in assay [2] stood at 2.53 nM.
With `Brc1cnn2c(NCc3nc4ccccc4[nH]3)nc(N3CCC3)nc12` [Example 143, 2-(azetidin-1-yl)-N-[(1H-benzimidazol-2-yl)methyl]-8-bromopyrazolo[1,5-a][1,3,5]triazin-4-amine], in assay [1], the DC50 turned out to be 30.9 nM and the “(IC50 CDK12 high ATP) to (Degradation DC50 CDK12) ratio” value is more than 646. Further, the IC50 on CDK2/CycE was 17800 nM.
On the same counts, the results for `CC1CN(C)CCN1c1nc(NCc2nc3ccccc3[nH]2)n2ncc(Br)c2n1` (stereo not drawn) [Example 156, N-(1H-benzimidazol-2-ylmethyl)-8-bromo-2-(2,4-dimethylpiperazin-1-yl)pyrazolo[1,5-a][1,3,5]triazin-4-amine] are 1.06 nM, 8849 and 3480 nM.
For `C[C@@H]1CCCCN1c1nc(NCc2nc3ccccc3[nH]2)n2ncc(Br)c2n1` [Example 140, N-[(1H-benzimidazol-2-yl)methyl]-8-bromo-2-[(2R)-2-methylpiperidin-1-yl]pyrazolo[1,5-a][1,3,5]triazin-4-amine], in that order: 58.3 nM, 140 and 1250 nM.
Regarding `NCCCc1cccc2[nH]c(CNc3nc(N4CCOCC4)nc4c(Br)cnn34)nc12.O=CO` [Example 114, formic acid-N-{[4-(3-aminopropyl)-1H-benzimidazol-2-yl]methyl}-8-bromo-2-(morpholin-4-yl)pyrazolo[1,5-a][1,3,5]triazin-4-amine (1/1)], in assay [1], the DC50 stood at 38.8 nM and the “(IC50 CDK12 high ATP) to (Degradation DC50 CDK12) ratio” value is reported as 210. In addition, the IC50 at CDK2/CycE amounted to 5440 nM.
For `Brc1cnn2c(NCc3nc4ccccc4[nH]3)nc(N3CCN(C4CC4)CC3)nc12` [Example 138, N-[(1H-benzimidazol-2-yl)methyl]-8-bromo-2-(4-cyclopropylpiperazin-1-yl)pyrazolo[1,5-a][1,3,5]triazin-4-amine], in that order: 76 nM, more than 263 and more than 20000 nM.
On the same counts, the results for `FC(F)(F)CN1CCN(c2nc(NCc3nc4ccccc4[nH]3)n3ncc(Br)c3n2)CC1` [Example 139, N-[(1H-benzimidazol-2-yl)methyl]-8-bromo-2-[4-(2,2,2-trifluoroethyl)piperazin-1-yl]pyrazolo[1,5-a][1,3,5]triazin-4-amine] are 110 nM, 140 and 14700 nM.
In the case of `CN1CCN(c2nc(NCc3nc4ccccc4[nH]3)n3ncc(Br)c3n2)CC1=O` [Example 131, 4-(4-{[(1H-benzimidazol-2-yl)methyl]amino}-8-bromopyrazolo[1,5-a][1,3,5]triazin-2-yl)-1-methylpiperazin-2-one], in assay [1], the DC50 is 122 nM and the “(IC50 CDK12 high ATP) to (Degradation DC50 CDK12) ratio” value is recorded as 91. Further, the IC50 on CDK2/CycE is more than 20000 nM.
Turning to `CCN1CCN(c2nc(NCc3nc4ccccc4[nH]3)n3ncc(Br)c3n2)CC1` [Example 137, N-[(1H-benzimidazol-2-yl)methyl]-8-bromo-2-(4-ethylpiperazin-1-yl)pyrazolo[1,5-a][1,3,5]triazin-4-amine], in assay [1], the DC50 was found to be 10.8 nM and the “(IC50 CDK12 high ATP) to (Degradation DC50 CDK12) ratio” value is 1196. The IC50 in assay [2] is 205 nM.
For the compound `CN1CCN(c2nc(NCc3nc4ccccc4[nH]3)n3ncc(Br)c3n2)C(CO)C1` (stereo not drawn) [Example 155, [1-[4-(1H-benzimidazol-2-ylmethylamino)-8-bromo-pyrazolo[1,5-a][1,3,5]triazin-2-yl]-4-methyl-piperazin-2-yl]methanol], in assay [1], the DC50 stood at 47.2 nM and the “(IC50 CDK12 high ATP) to (Degradation DC50 CDK12) ratio” value is reported as 79. In addition, on CDK2/CycE, the IC50 turned out to be 9280 nM.
